Patent publication US11033603B2, “Method for treating ocular diseases” (priority 2019, dated 2021)
“Also recorded” adds a separate entry of the source.

Legend:
[1] = Drug observed in the eyes after oral administration (FIG. 3); assay type: in vivo
[2] = test system: naturally-occurring diabetic macular edema in rhesus monkeys; assay: Fundus photography (FP) of NPDR related changes in spontaneous DME rhesus monkeys; assay type: in vivo, Macaca mulatta (Rhesus Macaque)
Description: (§1) Evaluation of Efficacy of beauvericin at different doses for 60 days on improving naturally-occurring diabetic macular edema in rhesus monkeys, providing a basis for clinical trial dose design and safety study.
(§2) Macaca mulatta (Rhesus Macaque) are used in the evaluation.
Secondary Endpoints and Safety Parameters: • (1) Fundus photography (FP). To detect changes of hemorrhage, exudate or vessel lesion before and after treatment; and • (2) Drug effect on metabolism and lipid profiles, liver and kidney function.
Non-human primates (NHPs) are extremely similar to humans in physiological function and structure of eyes. […]
Inclusion Criteria • (1) Female, age 13-18 years (equals to 40-60 years old in human adults), 6-7 kg; • (2) Diabetic duration: over 3 years; • (3) DME of single/both eyes; • (4) DME: the retinal thickness measured by Heidelberg Spectralis OCT in recent half year and diagnosed by FP/FFA with Kowa VX-20 Fundus Camera; • (5) CRT≥260 μm (Central Foveal Thickness) and/or Average Thickness of ETDRS regions≥319 μm. […] Nondiabetic monkey: Average thickness of the retina in nondiabetic animals was 192±11 μm at the fovea, and 307±15 and 328±13 measured at a distance of 1.5 mm from fovea on the temporal and nasal sides, respectively. […]

[3] = test system: VEGF induced angiogenesis; assay: In vivo Matrigel plug angiogenesis assay; parameters: species or system B57l/6 mice; conditions: mice; for VEGF induced angiogenesis in Matrigel plugs (images, FIG. 1): plugs taken out on Day 7; for Efficacy in inhibition of VEGF induced angiogenesis by hemoglobin level (FIG. 2), compared with Sorafenib: hemoglobin by Drabkin's reagent kit, Day 7
Description: In Vivo Matrigel Plug Angiogenesis Assay
Matrigel plug is made from a gelatinous protein mixture secreted by Engelbreth-Holm-Swarm (EHS) mouse sarcoma cells (produced and marketed by Corning Life Sciences and BD Biosciences). Matrigel resembles the complex extracellular environment found in many tissues and is used by cell biologists as a substrate (basement membrane matrix) for culturing assay.
The test animals were 5 to 8-week-aged B57l/6 mice. The Matrigel was mixed with PBS at a ratio of 4:1 to obtain the Matrigel plug. The mice were administered with the Matrigel plugs containing 30 IU heparin and VEGF 150 ng/ml (500 ul/mouse), and then divided into four groups (4 mice in one group), treated with Beauvericin i.p. or orally (GYT-088 Group), Sorafenib (Sorafenib Group) as a positive control, VEGF alone (Vehicle), and without any treatment (Ctrl). After one day, the animals were administered with the sorafenib i.p. at a dosage of 30 mg/kg or Beauvericin i.p. at a dosage of 2.4 mg/kg (0.1c.c./mice/day), or were orally administered with the Beauvericin at a dosage of 24 mg/kg once per day for six days. On Day 7, the animals were sacrificed and the Matrigel plugs were taken out for observation of angiogenesis. The hemoglobin of each mouse was also measured by Drabkin's reagent kit.

[4] = test system: naturally-occurring diabetic macular edema in rhesus monkeys; assay: Retinal thickness by OCT in spontaneous DME rhesus monkeys; assay type: in vivo, Macaca mulatta (Rhesus Macaque); conditions: for Macular Central Thickness, left eye / Macular Central Thickness, right eye / Fovea Thickness, left eye / Fovea Thickness, right eye: monkey #2003 (NPDR); for Macular Central Thickness, left eye: baseline 204; for Macular Central Thickness, right eye: baseline 210; for Fovea Thickness, left eye: baseline 257; for Fovea Thickness, right eye: baseline 260
Procedure: as §1, §2
Retinal Thickness by OCT. To Quantify Retinal Thickness Before and after Treatment.
Retinal thickness is evaluated by 2 methods using OCT: (1) at the fovea and 1.5 mm on either side of it (three point method), and (2) using a 52-point grid to determine the fraction of macula that had thicknesses in different thickness groupings (250-300, 301-350, 351-400 μm, etc.). This method was developed by the Primed team in collaboration with Prof. Dr. Timothy Kern, a renowned diabetic retinopathy expert from Case Western Reserve University. Refer to the ARVO 2018 Poster. Assessment of macular thickening in spontaneously diabetic rhesus monkeys.
Inclusion Criteria • (1) Female, age 13-18 years (equals to 40-60 years old in human adults), 6-7 kg; • (2) Diabetic duration: over 3 years; • (3) DME of single/both eyes; • (4) DME: the retinal thickness measured by Heidelberg Spectralis OCT in recent half year and diagnosed by FP/FFA with Kowa VX-20 Fundus Camera; • (5) CRT≥260 μm (Central Foveal Thickness) and/or Average Thickness of ETDRS regions≥319 μm. (Retinal Thickening is defined by Mean and SD of CRT and ETDRS thickness of normal monkeys). The retinal thickening is defined as thickness that exceeded the normal mean by 2 standard deviations. Nondiabetic monkey: Average thickness of the retina in nondiabetic animals was 192±11 μm at the fovea, and 307±15 and 328±13 measured at a distance of 1.5 mm from fovea on the temporal and nasal sides, respectively. This method was developed by the Primed team in collaboration with Prof. Dr. Timothy Kern, a renowned diabetic retinopathy expert from Case Western Reserve University. Refer to the ARVO 2018 Poster. Assessment of macular thickening in spontaneously diabetic rhesus monkeys; and • (6) with/without vessel leakage or non-perfusion area.
6 spontaneous DME rhesus monkeys (with medical record within one year) will be provided and 4 out of 6 monkeys will be enrolled in the Pre-study period (four weeks) for FA, FP, OCT and slit lamp examination as well as blood biochemistry before treatment. 4 Monkeys will be divided into two groups based on retinal thickness by OCT: • (1) Group 1, vehicle group, N=1; • (2) Group 2, test article group, N=3; (Route of administration: oral administration, once a day; Dosage: TBD).
Retinal thickness includes CST and ETDRS thickness. […]

[5] = monkey #2003, Day 14 versus baseline
[6] = monkey #2003, Day 56 versus baseline

Compound: CC(C)[C@H]1OC(=O)[C@H](Cc2ccccc2)N(C)C(=O)[C@@H](C(C)C)OC(=O)[C@H](Cc2ccccc2)N(C)C(=O)[C@@H](C(C)C)OC(=O)[C@H](Cc2ccccc2)N(C)C1=O [GYT-088, beauvericin]
- Crossing of blood-brain barrier (BBB) and blood-retinal barrier (BRB) into extravascular space of retina and vitreous body [1]: can be cross the blood-brain barrier (BBB) and particularly the blood-retinal barrier (BRB)
- Presence of test drug in the eyes of the animal [1]: observed in the eyes
- NPDR related changes, FP ([2]; monkey #2003, D28, oral, once a day, baseline: hemorrhages): improved
- NPDR changes before and after dosing by FP ([2]; other animals of GYT-088 group (not #2003), any time points): No significant changes
- VEGF induced angiogenesis in Matrigel plugs (images, FIG. 1) ([3]; Beauvericin i.p. 2.4 mg/kg once per day for six days): inhibited
- Efficacy in inhibition of VEGF induced angiogenesis by hemoglobin level (FIG. 2), compared with Sorafenib ([3]; listed as Beauvericin): higher efficacy
- Efficacy in inhibition of VEGF induced angiogenesis by hemoglobin level (FIG. 2), compared with Sorafenib ([3]; listed as beauvericin): higher efficacy; also recorded: even better than Sorafenib
- Macular Central Thickness, left eye ([4]; D14): 197 μm
- Macular Central Thickness, right eye ([4]; D14): 202 μm
- Fovea Thickness, left eye ([4]; D14): 249 μm
- Fovea Thickness, right eye ([4]; D14): 251 μm
- Macular Central Thickness, left eye ([4]; D28): 199 μm
- Macular Central Thickness, right eye ([4]; D28): 206 μm
- Fovea Thickness, left eye ([4]; D28): 253 μm
- Fovea Thickness, right eye ([4]; D28): 255 μm
- Macular Central Thickness, left eye ([4]; D56 (Double dosing)): 200 μm
- Macular Central Thickness, right eye ([4]; D56 (Double dosing)): 202 μm
- Fovea Thickness, left eye ([4]; D56 (Double dosing)): 254 μm
- Fovea Thickness, right eye ([4]; D56 (Double dosing)): 255 μm
- Reduction of central macular thickness (CMT), left eye [4, 5]: 7 μm
- Reduction of central macular thickness (CMT), right eye [4, 5]: 8 μm
- Reduction of fovea thickness, left eye [4, 5]: 8 μm
- Reduction of fovea thickness, right eye [4, 5]: 9 μm
- Reduction of central macular thickness, left eye [4, 6]: 6 μm
- Reduction of central macular thickness, right eye [4, 6]: 8 μm
- Reduction of macular thickness, left eye [4, 6]: 3 μm
- Reduction of macular thickness, right eye [4, 6]: 5 μm
- Efficacy in Diabetic Macular Edema (conclusion) ([4]; rhesus monkeys, oral, once a day): provided an efficacy in Diabetic Macular Edema

Compound: CNC(=O)c1cc(Oc2ccc(NC(=O)Nc3ccc(Cl)c(C(F)(F)F)c3)cc2)ccn1 [Sorafenib, reference compound]
- VEGF induced angiogenesis in Matrigel plugs (images, FIG. 1) ([3]; Sorafenib i.p. 30 mg/kg, positive control): inhibited
